Source: PubChem BioAssay (NCI)
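Cultured in 96-well plates, cells were exposed to test compound for 48 hours across five concentrations. GI50: concentration for 50% inhibition of growth. The concentration for full growth arrest is given as TGI.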

Columns and labels:
Experiment in all cases: DTP human tumour cell line panel, 48 h
A549 NSCLC = tested on: A549 NSCLC
PC-3 prostate = tested on: PC-3 prostate
ACHN renal = tested on: ACHN renal
CAKI-1 renal = tested on: CAKI-1 renal
HCC-2998 colon = tested on: HCC-2998 colon
NCI-H226 lung = tested on: NCI-H226 lung
DU-145 prostate = tested on: DU-145 prostate
NCI/ADR-RES ovarian = tested on: NCI/ADR-RES ovarian
SK-MEL-28 melanoma = tested on: SK-MEL-28 melanoma
LOX IMVI melanoma = tested on: LOX IMVI melanoma
T-47D breast = tested on: T-47D breast
HOP-92 NSCLC = tested on: HOP-92 NSCLC
MDA-MB-231 breast = tested on: MDA-MB-231 breast
SF-268 CNS = tested on: SF-268 CNS
U251 CNS = tested on: U251 CNS
SK-MEL-5 melanoma = tested on: SK-MEL-5 melanoma
NCI-H460 lung = tested on: NCI-H460 lung
NCI-H23 lung = tested on: NCI-H23 lung
786-0 renal = tested on: 786-0 renal
NCI-H522 lung = tested on: NCI-H522 lung
A498 renal = tested on: A498 renal
RPMI-8226 leukemia = tested on: RPMI-8226 leukemia
SF-295 CNS = tested on: SF-295 CNS
OVCAR-8 ovarian = tested on: OVCAR-8 ovarian
SK-OV-3 ovarian = tested on: SK-OV-3 ovarian
OVCAR-3 ovarian = tested on: OVCAR-3 ovarian
MCF7 breast = tested on: MCF7 breast
SNB-19 CNS = tested on: SNB-19 CNS
UACC-257 melanoma = tested on: UACC-257 melanoma
MDA-MB-435 = tested on: MDA-MB-435
OVCAR-4 ovarian = tested on: OVCAR-4 ovarian
SF-539 CNS = tested on: SF-539 CNS
KM12 colon = tested on: KM12 colon
SNB-75 CNS = tested on: SNB-75 CNS
HOP-62 NSCLC = tested on: HOP-62 NSCLC
SW-620 colon = tested on: SW-620 colon
HT29 colon = tested on: HT29 colon
SK-MEL-2 melanoma = tested on: SK-MEL-2 melanoma
SN12C renal = tested on: SN12C renal
IGROV1 ovarian = tested on: IGROV1 ovarian
UACC-62 melanoma = tested on: UACC-62 melanoma
HCT-116 colon = tested on: HCT-116 colon
M14 melanoma = tested on: M14 melanoma
RXF 393 renal = tested on: RXF 393 renal
MALME-3M melanoma = tested on: MALME-3M melanoma
HS 578T breast = tested on: HS 578T breast
UO-31 renal = tested on: UO-31 renal
EKVX NSCLC = tested on: EKVX NSCLC
HCT-15 colon = tested on: HCT-15 colon
TK-10 renal = tested on: TK-10 renal
OVCAR-5 ovarian = tested on: OVCAR-5 ovarian
COLO 205 colon = tested on: COLO 205 colon
BT-549 breast = tested on: BT-549 breast

CCCCCCCCCCSC(=N)N
GI50 (A549 NSCLC): 5.59 µM
TGI (A549 NSCLC): 18.6 µM
GI50 (PC-3 prostate): 4.76 µM
TGI (PC-3 prostate): 17.5 µM
GI50 (ACHN renal): 2.82 µM
TGI (ACHN renal): 9.33 µM
GI50 (CAKI-1 renal): 1.75 µM
TGI (CAKI-1 renal): 5.26 µM
GI50 (HCC-2998 colon): 1.72 µM
TGI (HCC-2998 colon): 3.31 µM
GI50 (NCI-H226 lung): 6.09 µM
TGI (NCI-H226 lung): 23.2 µM
GI50 (DU-145 prostate): 6.63 µM
TGI (DU-145 prostate): 19.3 µM
GI50 (NCI/ADR-RES ovarian): 4.8 µM
TGI (NCI/ADR-RES ovarian): 22.3 µM
GI50 (SK-MEL-28 melanoma): 3.67 µM
TGI (SK-MEL-28 melanoma): 14.1 µM
GI50 (LOX IMVI melanoma): 2.76 µM
TGI (LOX IMVI melanoma): 9.37 µM
GI50 (T-47D breast): 2.04 µM
TGI (T-47D breast): 4.55 µM
GI50 (HOP-92 NSCLC): 1.42 µM
TGI (HOP-92 NSCLC): 4.59 µM
GI50 (MDA-MB-231 breast): 2.51 µM
TGI (MDA-MB-231 breast): 9.15 µM
GI50 (SF-268 CNS): 4.2 µM
TGI (SF-268 CNS): 17 µM
GI50 (U251 CNS): 2.37 µM
TGI (U251 CNS): 6.72 µM
GI50 (SK-MEL-5 melanoma): 2.12 µM
TGI (SK-MEL-5 melanoma): 4.71 µM
GI50 (NCI-H460 lung): 2.02 µM
TGI (NCI-H460 lung): 4.68 µM
GI50 (NCI-H23 lung): 6.38 µM
TGI (NCI-H23 lung): 21.3 µM
GI50 (786-0 renal): 4.92 µM
TGI (786-0 renal): 19.5 µM
GI50 (NCI-H522 lung): 1.56 µM
TGI (NCI-H522 lung): 3.47 µM
GI50 (A498 renal): 4.69 µM
TGI (A498 renal): 19.3 µM
GI50 (RPMI-8226 leukemia): 1.73 µM
TGI (RPMI-8226 leukemia): 4.19 µM
GI50 (SF-295 CNS): 1.72 µM
TGI (SF-295 CNS): 3.51 µM
GI50 (OVCAR-8 ovarian): 4.17 µM
TGI (OVCAR-8 ovarian): 19.2 µM
GI50 (SK-OV-3 ovarian): 7.38 µM
TGI (SK-OV-3 ovarian): 19.9 µM
GI50 (OVCAR-3 ovarian): 3.71 µM
TGI (OVCAR-3 ovarian): 13.8 µM
GI50 (MCF7 breast): 2.19 µM
TGI (MCF7 breast): 6.03 µM
GI50 (SNB-19 CNS): 5.17 µM
TGI (SNB-19 CNS): 19.2 µM
GI50 (UACC-257 melanoma): 2.51 µM
TGI (UACC-257 melanoma): 6.32 µM
GI50 (MDA-MB-435): 1.77 µM
TGI (MDA-MB-435): 4.01 µM
GI50 (OVCAR-4 ovarian): 3.58 µM
TGI (OVCAR-4 ovarian): 17.6 µM
GI50 (SF-539 CNS): 10.2 µM
TGI (SF-539 CNS): 22.1 µM
GI50 (KM12 colon): 2.45 µM
TGI (KM12 colon): 6.5 µM
GI50 (SNB-75 CNS): 1.79 µM
TGI (SNB-75 CNS): 4.44 µM
GI50 (HOP-62 NSCLC): 3.36 µM
TGI (HOP-62 NSCLC): 10.3 µM
GI50 (SW-620 colon): 1.7 µM
TGI (SW-620 colon): 3.52 µM
GI50 (HT29 colon): 1.42 µM
TGI (HT29 colon): 2.84 µM
GI50 (SK-MEL-2 melanoma): 1.68 µM
TGI (SK-MEL-2 melanoma): 3.27 µM
GI50 (SN12C renal): 5.09 µM
TGI (SN12C renal): 18.4 µM
GI50 (IGROV1 ovarian): 2.85 µM
TGI (IGROV1 ovarian): 13.3 µM
GI50 (UACC-62 melanoma): 1.98 µM
TGI (UACC-62 melanoma): 4.45 µM
GI50 (HCT-116 colon): 2.96 µM
TGI (HCT-116 colon): 10.1 µM
GI50 (M14 melanoma): 1.89 µM
TGI (M14 melanoma): 3.57 µM
GI50 (RXF 393 renal): 5.1 µM
TGI (RXF 393 renal): 17.6 µM
GI50 (MALME-3M melanoma): 2.32 µM
TGI (MALME-3M melanoma): 6.59 µM
GI50 (HS 578T breast): 2.93 µM
TGI (HS 578T breast): 12.5 µM
GI50 (UO-31 renal): 2.61 µM
TGI (UO-31 renal): 12.4 µM
GI50 (EKVX NSCLC): 10.3 µM
TGI (EKVX NSCLC): 25.3 µM
GI50 (HCT-15 colon): 2.01 µM
TGI (HCT-15 colon): 4.73 µM
GI50 (TK-10 renal): 1.61 µM
TGI (TK-10 renal): 4.09 µM
GI50 (OVCAR-5 ovarian): 9.84 µM
TGI (OVCAR-5 ovarian): 23.5 µM
GI50 (COLO 205 colon): 1.55 µM
TGI (COLO 205 colon): 2.91 µM
GI50 (BT-549 breast): 11.3 µM
TGI (BT-549 breast): 24.6 µM
